In PubChem BioAssay (NCI):
Several values for one entry are separate records, joined by “and”; a condition that tells them apart may be missing. Equal entries are not always repeated.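 Protocol summary: plate cells (96-well), add compound at 5 concentrations, incubate 48 h, interpolate endpoints linearly. GI50 = concentration required for 50% inhibition of growth. TGI is the concentration that stops growth completely.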

Test system: UACC-257 melanoma
Experiment: NCI anticancer screen, dose series, 48 h

Row | SMILES | GI50 | TGI
1 | CC(C)(C#N)c1cc(Cn2cncn2)cc(C(C)(C)C#N)c1 | > 10000 µM | > 10000 µM
2 | NOCC(=O)O | > 100 µM | > 100 µM
3 | CC(=O)c1c(C)[nH]c(-c2nc3ccc(N4CCN(C)CC4)cc3[nH]2)c1-c1ccc(OCC2CCOCC2)cc1 | 0.789 µM | 4.42 µM
4 | CC12OC(c3ccccc3)=CC(c3ccc(Cl)cc3)=C1C(c1ccccc1)=CC2=O (stereo not drawn) | 49.3 µM | > 100 µM
5 | Cc1nc2sc(C(=O)Nc3cccc(Cl)c3C)c(N)c2cc1C(=O)/C=C/c1ccccc1 | 1.5 µM | 12.6 µM
6 | CC(C)c1ccc(C(=O)Nc2nc3ccc(O)cc3s2)cc1 | 1.51 µM | > 100 µM
7 | O=S(=O)(NC1=NCCN1C(=S)SN1CCn2c1nsc2=S)c1ccc(Br)cc1 | 46.6 µM | > 100 µM
8 | CC(=O)N[C@H]1C=C[C@@H]2/C=C(C)/C=C/[C@@H](C)[C@H]([C@H](C)[C@H](O)[C@@H](C)NC(C)=O)OC(=O)/C=C/C=C(C)\C=C\[C@]2(C)C1 |  | 4.65 µM and 16.5 µM
9 | O=C1c2ccccc2-c2c1c1ccccc1c(=O)n2CCCNCCCn1ccnc1 | 4.62 µM | 23.1 µM
10 | ClCc1cccc(Cn2cnc3c(NC45CC6CC(CC(C6)C4)C5)ncnc32)c1 | 16 µM | 37.4 µM
11 | CC(=O)CC(=O)Nc1ccc2ccccc2c1 |  | > 100 µM
12 | O=c1c2cc(Cl)ccc2oc2ccc(OCCCCCN3CCCCC3)cc12 | 1.3 µM | 3.2 µM
13 | Cc1cc(I)cc(CN(C)CCCN2CCSCC2)c1O | 26.4 µM | 92.1 µM
14 | O=C1c2ccccc2C(=O)N1CCCSc1ccccc1 |  | > 100 µM
15 | CCOC(=O)Nc1nc2ccc(Cn3cccc3)cc2[nH]1 |  | 26.2 µM
16 | COc1cc(Nc2nccc(Nc3ccc4c(C)[nH]nc4c3)n2)cc(OC)c1OC | 1.22 µM | 5.96 µM
17 | CCN(CC)CCC(=O)NC1c2ccc(Cl)cc2Oc2c(C)cccc21 (stereo not drawn) |  | 31.6 µM
18 | CCOC(=O)c1cc(C#N)c(=O)n(/N=C(\C)c2ccncc2)c1O | > 100 µM | > 100 µM
19 | COc1ccc(/C=N\NC(=O)CN2CCN(c3cc4c(cc3F)c(=O)c(C(=O)N/N=C/c3ccc(OC)c(OC)c3)cn4C3CC3)CC2)cc1OC | 3.38 µM | 37.6 µM

Test system: MDA-MB-435
Experiment: NCI anticancer screen, dose series, 48 h

Row | SMILES | GI50 | TGI
20 | CC(C)(C#N)c1cc(Cn2cncn2)cc(C(C)(C)C#N)c1 | > 10000 µM | > 10000 µM
21 | NOCC(=O)O | > 100 µM | > 100 µM
22 | CC(=O)c1c(C)[nH]c(-c2nc3ccc(N4CCN(C)CC4)cc3[nH]2)c1-c1ccc(OCC2CCOCC2)cc1 | 0.477 µM | 12.2 µM
23 | CC12OC(c3ccccc3)=CC(c3ccc(Cl)cc3)=C1C(c1ccccc1)=CC2=O (stereo not drawn) | 81.3 µM | > 100 µM
24 | Cc1nc2sc(C(=O)Nc3cccc(Cl)c3C)c(N)c2cc1C(=O)/C=C/c1ccccc1 | 0.111 µM | 0.263 µM
25 | CC(C)c1ccc(C(=O)Nc2nc3ccc(O)cc3s2)cc1 | 0.443 µM | > 100 µM
26 | O=S(=O)(NC1=NCCN1C(=S)SN1CCn2c1nsc2=S)c1ccc(Br)cc1 | 27.6 µM | > 100 µM
27 | CC(=O)N[C@H]1C=C[C@@H]2/C=C(C)/C=C/[C@@H](C)[C@H]([C@H](C)[C@H](O)[C@@H](C)NC(C)=O)OC(=O)/C=C/C=C(C)\C=C\[C@]2(C)C1 | 0.00823 µM | 4.65 µM
28 | O=C1c2ccccc2-c2c1c1ccccc1c(=O)n2CCCNCCCn1ccnc1 | 1.72 µM | 5.51 µM
29 | ClCc1cccc(Cn2cnc3c(NC45CC6CC(CC(C6)C4)C5)ncnc32)c1 | 13.4 µM | 29.8 µM
30 | CC(=O)CC(=O)Nc1ccc2ccccc2c1 |  | > 100 µM
31 | O=c1c2cc(Cl)ccc2oc2ccc(OCCCCCN3CCCCC3)cc12 | 1.02 µM | 2.37 µM
32 | Cc1cc(I)cc(CN(C)CCCN2CCSCC2)c1O | 23.2 µM | 57.5 µM
33 | O=C1c2ccccc2C(=O)N1CCCSc1ccccc1 |  | > 100 µM
34 | CCOC(=O)Nc1nc2ccc(Cn3cccc3)cc2[nH]1 |  | 0.731 µM
35 | COc1cc(Nc2nccc(Nc3ccc4c(C)[nH]nc4c3)n2)cc(OC)c1OC | 0.666 µM | 3.09 µM
36 | CCN(CC)CCC(=O)NC1c2ccc(Cl)cc2Oc2c(C)cccc21 (stereo not drawn) |  | 28.3 µM
37 | CCOC(=O)c1cc(C#N)c(=O)n(/N=C(\C)c2ccncc2)c1O | > 100 µM | > 100 µM
38 | COc1ccc(/C=N\NC(=O)CN2CCN(c3cc4c(cc3F)c(=O)c(C(=O)N/N=C/c3ccc(OC)c(OC)c3)cn4C3CC3)CC2)cc1OC | 2.02 µM | 3.97 µM

Test system: LOX IMVI melanoma
Experiment: NCI anticancer screen, dose series, 48 h

Row | SMILES | GI50 | TGI
39 | CC(C)(C#N)c1cc(Cn2cncn2)cc(C(C)(C)C#N)c1 | > 10000 µM | > 10000 µM
40 | NOCC(=O)O | > 100 µM | > 100 µM
41 | CC(=O)c1c(C)[nH]c(-c2nc3ccc(N4CCN(C)CC4)cc3[nH]2)c1-c1ccc(OCC2CCOCC2)cc1 | 0.318 µM | 1.45 µM
42 | CC12OC(c3ccccc3)=CC(c3ccc(Cl)cc3)=C1C(c1ccccc1)=CC2=O (stereo not drawn) | 46 µM | > 100 µM
43 | Cc1nc2sc(C(=O)Nc3cccc(Cl)c3C)c(N)c2cc1C(=O)/C=C/c1ccccc1 | 0.188 µM | 0.711 µM
44 | CC(C)c1ccc(C(=O)Nc2nc3ccc(O)cc3s2)cc1 | 0.2 µM | 29.5 µM
45 | O=S(=O)(NC1=NCCN1C(=S)SN1CCn2c1nsc2=S)c1ccc(Br)cc1 | 19.4 µM | 39.6 µM
46 | CC(=O)N[C@H]1C=C[C@@H]2/C=C(C)/C=C/[C@@H](C)[C@H]([C@H](C)[C@H](O)[C@@H](C)NC(C)=O)OC(=O)/C=C/C=C(C)\C=C\[C@]2(C)C1 | 0.00734 µM and < 0.0045 µM | 0.016 µM and < 0.0045 µM
47 | O=C1c2ccccc2-c2c1c1ccccc1c(=O)n2CCCNCCCn1ccnc1 | 0.45 µM | 1.78 µM
48 | ClCc1cccc(Cn2cnc3c(NC45CC6CC(CC(C6)C4)C5)ncnc32)c1 | 15.7 µM | 31.7 µM
49 | CC(=O)CC(=O)Nc1ccc2ccccc2c1 |  | > 100 µM
50 | O=c1c2cc(Cl)ccc2oc2ccc(OCCCCCN3CCCCC3)cc12 | 0.967 µM | 2.12 µM
51 | Cc1cc(I)cc(CN(C)CCCN2CCSCC2)c1O | 17.2 µM | 33.5 µM
52 | O=C1c2ccccc2C(=O)N1CCCSc1ccccc1 |  | > 100 µM
53 | CCOC(=O)Nc1nc2ccc(Cn3cccc3)cc2[nH]1 |  | > 100 µM
54 | COc1cc(Nc2nccc(Nc3ccc4c(C)[nH]nc4c3)n2)cc(OC)c1OC | 0.963 µM | 3.98 µM
55 | CCN(CC)CCC(=O)NC1c2ccc(Cl)cc2Oc2c(C)cccc21 (stereo not drawn) |  | 29.1 µM
56 | CCOC(=O)c1cc(C#N)c(=O)n(/N=C(\C)c2ccncc2)c1O | > 100 µM | > 100 µM
57 | COc1ccc(/C=N\NC(=O)CN2CCN(c3cc4c(cc3F)c(=O)c(C(=O)N/N=C/c3ccc(OC)c(OC)c3)cn4C3CC3)CC2)cc1OC | 3.22 µM | 11.3 µM

Test system: NCI-H23 lung
Experiment: NCI anticancer screen, dose series, 48 h

Row | SMILES | GI50 | TGI
58 | CC(C)(C#N)c1cc(Cn2cncn2)cc(C(C)(C)C#N)c1 | > 10000 µM | > 10000 µM
59 | NOCC(=O)O | > 100 µM | > 100 µM
60 | CC(=O)c1c(C)[nH]c(-c2nc3ccc(N4CCN(C)CC4)cc3[nH]2)c1-c1ccc(OCC2CCOCC2)cc1 | 1.32 µM | 18.3 µM
61 | CC12OC(c3ccccc3)=CC(c3ccc(Cl)cc3)=C1C(c1ccccc1)=CC2=O (stereo not drawn) | 41.5 µM | > 100 µM
62 | Cc1nc2sc(C(=O)Nc3cccc(Cl)c3C)c(N)c2cc1C(=O)/C=C/c1ccccc1 | 0.755 µM | 2.44 µM
63 | CC(C)c1ccc(C(=O)Nc2nc3ccc(O)cc3s2)cc1 | 3.52 µM | > 100 µM
64 | O=S(=O)(NC1=NCCN1C(=S)SN1CCn2c1nsc2=S)c1ccc(Br)cc1 | 53.2 µM | > 100 µM
65 | CC(=O)N[C@H]1C=C[C@@H]2/C=C(C)/C=C/[C@@H](C)[C@H]([C@H](C)[C@H](O)[C@@H](C)NC(C)=O)OC(=O)/C=C/C=C(C)\C=C\[C@]2(C)C1 |  | 4.65 µM and > 45 µM
66 | O=C1c2ccccc2-c2c1c1ccccc1c(=O)n2CCCNCCCn1ccnc1 | 0.411 µM | 1.53 µM
67 | ClCc1cccc(Cn2cnc3c(NC45CC6CC(CC(C6)C4)C5)ncnc32)c1 | 19.6 µM | 46.4 µM
68 | CC(=O)CC(=O)Nc1ccc2ccccc2c1 |  | > 100 µM
69 | O=c1c2cc(Cl)ccc2oc2ccc(OCCCCCN3CCCCC3)cc12 | 5.37 µM | 12 µM
70 | Cc1cc(I)cc(CN(C)CCCN2CCSCC2)c1O | 23.5 µM | 65.1 µM
71 | O=C1c2ccccc2C(=O)N1CCCSc1ccccc1 |  | > 100 µM
72 | CCOC(=O)Nc1nc2ccc(Cn3cccc3)cc2[nH]1 |  | > 100 µM
73 | COc1cc(Nc2nccc(Nc3ccc4c(C)[nH]nc4c3)n2)cc(OC)c1OC | 2.51 µM | 7.82 µM
74 | CCN(CC)CCC(=O)NC1c2ccc(Cl)cc2Oc2c(C)cccc21 (stereo not drawn) |  | 31.5 µM
75 | CCOC(=O)c1cc(C#N)c(=O)n(/N=C(\C)c2ccncc2)c1O | > 100 µM | > 100 µM
76 | COc1ccc(/C=N\NC(=O)CN2CCN(c3cc4c(cc3F)c(=O)c(C(=O)N/N=C/c3ccc(OC)c(OC)c3)cn4C3CC3)CC2)cc1OC | 3.1 µM | 10.8 µM

Test system: RPMI-8226 leukemia
Experiment: NCI anticancer screen, dose series, 48 h

Row | SMILES | GI50 | TGI
77 | CC(C)(C#N)c1cc(Cn2cncn2)cc(C(C)(C)C#N)c1 | 183 µM | 698 µM
78 | NOCC(=O)O | 58 µM | > 100 µM
79 | CC(=O)c1c(C)[nH]c(-c2nc3ccc(N4CCN(C)CC4)cc3[nH]2)c1-c1ccc(OCC2CCOCC2)cc1 | 0.251 µM | 1.42 µM
80 | CC12OC(c3ccccc3)=CC(c3ccc(Cl)cc3)=C1C(c1ccccc1)=CC2=O (stereo not drawn) | 17.3 µM | 47.2 µM
81 | Cc1nc2sc(C(=O)Nc3cccc(Cl)c3C)c(N)c2cc1C(=O)/C=C/c1ccccc1 | 0.14 µM | 0.465 µM
82 | CC(C)c1ccc(C(=O)Nc2nc3ccc(O)cc3s2)cc1 | 2.74 µM | > 100 µM
83 | O=S(=O)(NC1=NCCN1C(=S)SN1CCn2c1nsc2=S)c1ccc(Br)cc1 | 1.86 µM | 37.2 µM
84 | CC(=O)N[C@H]1C=C[C@@H]2/C=C(C)/C=C/[C@@H](C)[C@H]([C@H](C)[C@H](O)[C@@H](C)NC(C)=O)OC(=O)/C=C/C=C(C)\C=C\[C@]2(C)C1 | 0.0428 µM and 0.0045 µM | 4.65 µM and 13.1 µM
85 | O=C1c2ccccc2-c2c1c1ccccc1c(=O)n2CCCNCCCn1ccnc1 | 0.195 µM | 1.02 µM
86 | ClCc1cccc(Cn2cnc3c(NC45CC6CC(CC(C6)C4)C5)ncnc32)c1 | 10.8 µM | > 53.2 µM
87 | CC(=O)CC(=O)Nc1ccc2ccccc2c1 |  | > 100 µM
88 | O=c1c2cc(Cl)ccc2oc2ccc(OCCCCCN3CCCCC3)cc12 | 3.6 µM | 12.4 µM
89 | Cc1cc(I)cc(CN(C)CCCN2CCSCC2)c1O | 18.8 µM | 44.4 µM
90 | O=C1c2ccccc2C(=O)N1CCCSc1ccccc1 |  | > 100 µM
91 | CCOC(=O)Nc1nc2ccc(Cn3cccc3)cc2[nH]1 |  | > 100 µM
92 | COc1cc(Nc2nccc(Nc3ccc4c(C)[nH]nc4c3)n2)cc(OC)c1OC | 5.21 µM | 13.2 µM
93 | CCN(CC)CCC(=O)NC1c2ccc(Cl)cc2Oc2c(C)cccc21 (stereo not drawn) |  | 70.3 µM
94 | CCOC(=O)c1cc(C#N)c(=O)n(/N=C(\C)c2ccncc2)c1O | > 100 µM | > 100 µM
95 | COc1ccc(/C=N\NC(=O)CN2CCN(c3cc4c(cc3F)c(=O)c(C(=O)N/N=C/c3ccc(OC)c(OC)c3)cn4C3CC3)CC2)cc1OC | 2.77 µM | 8.82 µM
